Test results published in patent US8415293B2, “Peptide mediators of cholesterol efflux” (The Regents of the University of California, priority 2008, dated 2013).
Blank lines part the entries; values can stand above or below the molecule they belong to. Square brackets hold non-standard residues; d marks the D form. Ends that are not written are not given here.

Experiments:
[1] = Scaled = (Raw + 2.061)/4.484; Black and Mould 1991; cited from earlier work
ABCA1 [2] = target: T1, ABCA1 (Mus musculus, UniProt P41233); assay: Cholesterol efflux from [3H]cholesterol-labeled J774 macrophages ± cAMP (upregulates ABCA1); assay type: cell-based; conditions: for % cholesterol efflux (8 hours): J774 macrophages; for cholesterol efflux from cells induced for the ABCA1 response (in words): lipid-free peptide 30 μg/ml, 8 h, +cAMP compared to no cAMP
T1 construct: cell lines in which cholesterol efflux can be enhanced using a cAMP analog that up-regulates ABCA1 protein expression (e.g., J774 macrophages); endogenous in cells; host or cells: J774 macrophages
T1 sequence (P41233 whole entry): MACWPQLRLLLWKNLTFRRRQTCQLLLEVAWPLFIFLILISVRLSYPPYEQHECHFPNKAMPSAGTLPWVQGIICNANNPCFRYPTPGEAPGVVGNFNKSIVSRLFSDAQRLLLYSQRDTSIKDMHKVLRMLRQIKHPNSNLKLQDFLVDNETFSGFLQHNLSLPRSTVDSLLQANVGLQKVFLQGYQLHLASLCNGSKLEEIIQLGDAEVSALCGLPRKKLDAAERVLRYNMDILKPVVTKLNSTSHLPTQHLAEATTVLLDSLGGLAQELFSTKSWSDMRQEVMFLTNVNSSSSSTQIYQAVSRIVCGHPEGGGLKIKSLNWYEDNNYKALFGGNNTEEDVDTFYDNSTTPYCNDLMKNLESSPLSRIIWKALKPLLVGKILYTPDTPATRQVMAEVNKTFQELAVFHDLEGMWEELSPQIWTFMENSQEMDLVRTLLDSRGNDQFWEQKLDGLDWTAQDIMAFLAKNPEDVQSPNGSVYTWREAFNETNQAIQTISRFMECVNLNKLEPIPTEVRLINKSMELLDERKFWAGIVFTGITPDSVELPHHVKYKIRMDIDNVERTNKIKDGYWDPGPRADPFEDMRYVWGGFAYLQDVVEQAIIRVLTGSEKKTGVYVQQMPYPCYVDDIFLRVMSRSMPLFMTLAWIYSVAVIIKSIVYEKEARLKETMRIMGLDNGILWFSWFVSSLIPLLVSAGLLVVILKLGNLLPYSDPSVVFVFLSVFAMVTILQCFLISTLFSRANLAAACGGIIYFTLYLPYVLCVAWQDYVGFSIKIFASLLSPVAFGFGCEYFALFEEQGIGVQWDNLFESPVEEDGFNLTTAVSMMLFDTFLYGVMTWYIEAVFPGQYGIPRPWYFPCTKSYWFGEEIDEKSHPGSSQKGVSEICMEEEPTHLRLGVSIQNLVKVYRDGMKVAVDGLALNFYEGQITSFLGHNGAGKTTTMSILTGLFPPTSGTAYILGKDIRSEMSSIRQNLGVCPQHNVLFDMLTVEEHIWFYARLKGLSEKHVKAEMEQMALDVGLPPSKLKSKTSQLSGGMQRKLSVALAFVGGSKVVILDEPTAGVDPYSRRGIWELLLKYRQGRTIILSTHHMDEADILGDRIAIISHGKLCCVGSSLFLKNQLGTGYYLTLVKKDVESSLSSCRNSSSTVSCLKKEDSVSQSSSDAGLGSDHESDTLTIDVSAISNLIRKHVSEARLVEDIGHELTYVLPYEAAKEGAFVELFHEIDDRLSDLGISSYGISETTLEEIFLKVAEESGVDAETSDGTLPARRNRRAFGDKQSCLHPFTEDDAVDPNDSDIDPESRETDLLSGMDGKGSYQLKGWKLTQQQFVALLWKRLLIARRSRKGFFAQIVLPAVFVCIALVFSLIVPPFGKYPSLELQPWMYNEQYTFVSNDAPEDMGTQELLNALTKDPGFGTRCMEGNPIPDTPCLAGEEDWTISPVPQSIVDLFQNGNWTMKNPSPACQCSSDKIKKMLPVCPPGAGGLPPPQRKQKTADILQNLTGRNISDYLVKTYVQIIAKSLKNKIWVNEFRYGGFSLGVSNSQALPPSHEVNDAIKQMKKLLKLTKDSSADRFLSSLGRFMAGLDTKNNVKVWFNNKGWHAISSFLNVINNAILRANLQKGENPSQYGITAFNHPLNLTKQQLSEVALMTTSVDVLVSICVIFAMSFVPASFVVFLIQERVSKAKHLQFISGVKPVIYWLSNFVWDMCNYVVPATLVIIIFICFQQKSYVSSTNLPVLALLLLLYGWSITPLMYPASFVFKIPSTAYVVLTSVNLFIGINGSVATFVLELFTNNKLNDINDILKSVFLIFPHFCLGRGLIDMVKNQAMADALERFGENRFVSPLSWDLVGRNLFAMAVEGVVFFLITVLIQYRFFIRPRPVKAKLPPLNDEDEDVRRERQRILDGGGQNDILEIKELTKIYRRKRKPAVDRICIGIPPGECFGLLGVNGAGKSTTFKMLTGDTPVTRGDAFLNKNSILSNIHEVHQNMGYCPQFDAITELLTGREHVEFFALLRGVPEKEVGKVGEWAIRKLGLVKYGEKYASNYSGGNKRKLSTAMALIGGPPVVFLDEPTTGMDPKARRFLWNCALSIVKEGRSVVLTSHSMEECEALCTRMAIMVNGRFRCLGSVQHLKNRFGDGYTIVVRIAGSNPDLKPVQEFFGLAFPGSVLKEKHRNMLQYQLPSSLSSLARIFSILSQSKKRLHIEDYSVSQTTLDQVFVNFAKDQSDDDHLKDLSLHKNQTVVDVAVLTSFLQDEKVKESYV
Excerpt: Suitable cholesterol efflux assays are described in, […] and Oda, M. N., Biochemistry, 41:2089-2096 (2002); Jia et al., Biochem. Biophys. Res. Common., 297:206-213 (2002). In some embodiments, a polypeptide known to mediate cholesterol efflux (e.g., helix 9/10 of Apo A-I) is used to screen for additional mediators of cholesterol efflux in a cell based assay. For example, cell lines in which cholesterol efflux can be enhanced using a cAMP analog that up-regulates ABCA1 protein expression (e.g., J774 macrophages) can conveniently be used to assess the ability of a polypeptide of the present invention to mediate cholesterol efflux. The cells are incubated with labeled cholesterol (e.g., [^3H]cholesterol) under conditions appropriate for cholesterol uptake by the cells. Thus, cAMP or cAMP analogs (e.g., CPT-cAMP) are incubated with the cells for a suitable time before the initiation of cellular cholesterol efflux, i.e., prior to contacting the cells with a test polypeptide. Measurement of labeled cholesterol appearing in the medium is used to determine the cholesterol efflux mediating activity of the test polypeptide. […] J774 cells plated on 24-well culture plates were labeled (48 h) with 1 μCi/ml of [^3H]cholesterol in 1% FBS. A cAMP analog was added (0.3 mM) to some wells (12-18 h) to up-regulate ABCA1 expression. Following cAMP treatment, cells were rinsed, and then exposed to peptide in serum-free medium. Panel A provides data showing the dependence of cholesterol efflux on concentration (lipid-free SEQ ID NO:2 peptide (squares) and lipid-free apolipoprotein(apo)A-I (circles)); cAMP-treated cells were used. The percentage of cellular [^3H]cholesterol that appeared in the medium at 8 h is shown, subtracting background efflux to serum-free medium alone. Values are means±SD; apoA-I, n=8; SEQ ID NO:2 peptide, n=3. Km values reflecting efficiency for cholesterol efflux stimulation were calculated (Prism 4 software) from concentration-dependence curves using the Michaelis-Menton equation and 4 h efflux data.

ABCA1 [3] = target: T1, ABCA1; assay: Cholesterol efflux activity of peptides after exposure to acrolein (MPO-derived oxidation product), J774 macrophages + cAMP; assay type: cell-based; conditions: acrolein:peptide mole ratio 25:1, 18 h, 37° C.; efflux at 2 μg/ml
Protocol: Peptides corresponding to SEQ ID NO:2 and SEQ ID NO:12 were exposed to acrolein (acrolein:peptide mole ratio=25:1) for 18 h at 37° C. Control peptides were similarly incubated in the absence of acrolein. Control and acrolein-treated peptides were then dialyzed and used for cholesterol efflux experiments. […] J774 macrophages treated with cAMP, which up-regulates ABCA1, were used in both panels. Cholesterol efflux assays were conducted using peptides at 2 μg/ml serum free-medium.

ABCA1 [4] = target: T1, ABCA1; assay: Cholesterol efflux from [3H]cholesterol-labeled J774 macrophages ± cAMP (upregulates ABCA1); assay type: cell-based; conditions: concentration dependence
[5] = system: HDL subpopulations in human plasma; assay: preβ-1 HDL formation in human plasma (2D gel electrophoresis, apoA-I Western blot); assay type: biochemical; conditions: peptide 30 μg/ml (peptide:apoA-I mole ratio ~1:5), 5 minutes, 37° C.
Protocol: Peptide of the invention may also be screened for the ability to induce preβ-1 HDL formation in human plasma. In one example of such an analysis, a peptide to be tested is added to human plasma. Plasma with and without peptide are incubated and then evaluated, e.g., by agarose gel electrophoresis in the first dimension followed by native gradient gel electrophoresis in the second dimension to evaluate the population of HDL particles present in the human plasma samples.
Peptides corresponding to SEQ ID NO:2 were added to human plasma at a final concentration of 30 μg/ml (i.e. peptide:apoA-I mole ratio ˜1:5). Plasma with and without peptide were subsequently incubated for 5 minutes at 37° C. Following incubations, samples of plasma were subjected to agarose gel electrophoresis in the first dimension followed by native gradient gel electrophoresis in the second dimension. Proteins on resulting gels were transferred to nitrocellulose and analyzed by Western-blot analysis using an apoA-I antibody. The distribution of HDL subpopulations in plasma treated with vehicle alone (open bars), SEQ ID NO:2 peptide composed of all D-amino acids (intermediate shade), and SEQ ID NO:2 peptide composed of all L-amino acids (darkly shaded) is shown. […] Reductions of α-HDL subpopulations indicate that peptides specifically interact with distinct HDL species to generate preβ-1 apoA-I particles.

Molecule: C[C@H](N)C(=O)O [Alanine]
Hydrophobicity (scaled computational log(P)) [1]: 0.616

Molecule: N=C(N)NCCC[C@H](N)C(=O)O [Arginine]
Hydrophobicity (scaled computational log(P)) [1]: 0.000

Molecule: NC(=O)C[C@H](N)C(=O)O [Asparagine]
Hydrophobicity (scaled computational log(P)) [1]: 0.236

Molecule: N[C@@H](CCC(=O)O)C(=O)O [Glutamate]
Hydrophobicity (scaled computational log(P)) [1]: 0.043

Molecule: NCC(=O)O [Glycine]
Hydrophobicity (scaled computational log(P)) [1]: 0.501

Molecule: N[C@@H](Cc1c[nH]cn1)C(=O)O [Histidine]
Hydrophobicity (scaled computational log(P)) [1]: 0.165

Molecule: CC[C@H](C)[C@H](N)C(=O)O [Isoleucine]
Hydrophobicity (scaled computational log(P)) [1]: 0.943

Molecule: NCCCC[C@H](N)C(=O)O [Lysine]
Hydrophobicity (scaled computational log(P)) [1]: 0.283

Molecule: CSCC[C@H](N)C(=O)O [Methionine]
Hydrophobicity (scaled computational log(P)) [1]: 0.738

Molecule: N[C@@H](Cc1ccccc1)C(=O)O [Phenylalanine]
Hydrophobicity (scaled computational log(P)) [1]: 1.00

Molecule: O=C(O)[C@@H]1CCCN1 [Proline]
Hydrophobicity (scaled computational log(P)) [1]: 0.711

Molecule: C[C@@H](O)[C@H](N)C(=O)O [Threonine]
Hydrophobicity (scaled computational log(P)) [1]: 0.450

Molecule: N[C@@H](Cc1c[nH]c2ccccc12)C(=O)O [Tryptophan]
Hydrophobicity (scaled computational log(P)) [1]: 0.878

Molecule: N[C@@H](Cc1ccc(O)cc1)C(=O)O [Tyrosine]
Hydrophobicity (scaled computational log(P)) [1]: 0.880

Molecule: CC(C)[C@H](N)C(=O)O [Valine]
Hydrophobicity (scaled computational log(P)) [1]: 0.825

% cholesterol efflux (8 hours) (ABCA1 [2]; + cAMP (ABCA1 upregulated)): 8.25 ± 0.33%
% cholesterol efflux (8 hours) (ABCA1 [2]; no cAMP): 2.66 ± 0.41%
effect of acrolein on cholesterol efflux activity (ABCA1 [3]): modest effects of acrolein
% cholesterol efflux/4 hours (ABCA1 [4]; peptide 0.1 μg/ml): 0.58%
% cholesterol efflux/4 hours (ABCA1 [4]; peptide 0.3 μg/ml): 1.00%
% cholesterol efflux/4 hours (ABCA1 [4]; peptide 1.0 μg/ml): 2.12%
% cholesterol efflux/4 hours (ABCA1 [4]; peptide 3.0 μg/ml): 5.25%
% cholesterol efflux/4 hours (ABCA1 [4]; peptide 10 μg/ml): 4.15%
% cholesterol efflux/4 hours (ABCA1 [4]; peptide 30 μg/ml): 3.70%
Molecule: ELRDRLEAWLDLLRELLERL [N1154-10]

Molecule: ELREKLEAFFELFREFLERF (synthetic amphipathic alpha-helix peptide ligand for ATP-binding cassette transporter A1 (ABCA1) having cholesterol efflux activity) [SEQ ID NO:33]
cholesterol efflux from cells induced for the ABCA1 response (in words) (ABCA1 [2]): relatively high-levels of cholesterol efflux

Molecule: ELREKLEALFELFREFLERF (synthetic amphipathic alpha-helix peptide ligand for ATP-binding cassette transporter A1 (ABCA1) having cholesterol efflux activity) [SEQ ID NO:32]
cholesterol efflux from cells induced for the ABCA1 response (in words) (ABCA1 [2]): relatively high-levels of cholesterol efflux

concentration giving max. efflux (ABCA1 [2]; concentration dependence, cAMP treated cells): 3 µg/mL
Molecule: ELREKLEAWFELFAEFFARF (synthetic amphipathic alpha-helix peptide N356-6 ligand for ATP-binding cassette transporter A1 (ABCA1) having cholesterol efflux activity)

Molecule: ELREKLEAWFELFREFLERF ([dE][dL][dR][dE][dK][dL][dE][dA][dW][dF][dE][dL][dF][dR][dE][dF][dL][dE][dR][dF])
change in HDL subpopulations in human plasma [5]: preferential increase in preβ-1 HDL

% cholesterol efflux (8 hours) (ABCA1 [2]; + cAMP (ABCA1 upregulated)): 5.26 ± 0.95%
% cholesterol efflux (8 hours) (ABCA1 [2]; no cAMP): 2.29 ± 0.16%
effect of acrolein on cholesterol efflux activity (ABCA1 [3]): Acrolein greatly decreased the activity
% cholesterol efflux/4 hours (ABCA1 [4]; peptide 0.1 μg/ml): 0.15%
% cholesterol efflux/4 hours (ABCA1 [4]; peptide 0.3 μg/ml): 0.52%
% cholesterol efflux/4 hours (ABCA1 [4]; peptide 1.0 μg/ml): 1.72%
% cholesterol efflux/4 hours (ABCA1 [4]; peptide 3.0 μg/ml): 4.60%
% cholesterol efflux/4 hours (ABCA1 [4]; peptide 10 μg/ml): 3.62%
% cholesterol efflux/4 hours (ABCA1 [4]; peptide 30 μg/ml): 3.66%
Molecule: ELREKLEAWFELFREFLERF [N965-8]

Molecule: ELREKLEAWFELFREFLERFKS (synthetic amphipathic alpha-helix peptide ligand for ATP-binding cassette transporter A1 (ABCA1) having cholesterol efflux activity) [SEQ ID NO:31]
stimulation of ABCA1 cholesterol efflux (in words) (ABCA1 [2]; lipid-free peptide, J774 macrophages ± cAMP): stimulates ABCA1 cholesterol efflux, similar to 20-mer SEQ ID NO:2 peptide

% cholesterol efflux (8 hours) (ABCA1 [2]; + cAMP (ABCA1 upregulated)): 6.99 ± 1.4%
% cholesterol efflux (8 hours) (ABCA1 [2]; no cAMP): 0.91 ± 0.1%
Molecule: ELREKLEAWREAFEEFFARFKS [N257-11]

Molecule: apoA-I: full-length apolipoprotein A-I, polypeptide comprising 243 amino acids, used lipid-free as comparator [reference compound]
Km (ABCA1 [2]; lipid-free, cAMP-treated cells, 4 h efflux data, read-out: Km for cholesterol efflux stimulation, molar basis): 0.12 ± 0.02 µM
Km for cholesterol efflux stimulation, mass basis (ABCA1 [2]; lipid-free, cAMP-treated cells, Michaelis-Menton fit of 4 h efflux data): 3.4 ± 0.6 µg/mL
